Legend:
[1] = compound: CCc1cnn2c(NCc3ccc[n+]([O-])c3)cc(N3CCCC[C@H]3CCO)nc12; assay: increase in dead-cell fraction, 72 h; higher = more death;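 also: breast cancer cell lines in 384-well plates, stained with Hoechst plus LIVE/DEAD far red dye and imaged, cells above an LDR intensity threshold counted dead, Hoechst-negative corpses included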
LEE011/Ribociclib = compound: CN(C)C(=O)c1cc2cnc(Nc3ccc(N4CCNCC4)cn3)nc2n1C1CCCC1 [LEE011/Ribociclib]; assay: as above
BSJ-03-123 = compound: CC(=O)c1c(C)c2cnc(Nc3ccc(N4CCN(CCOCCOCCOCCNC(=O)COc5cccc6c5C(=O)N(C5CCC(=O)NC5=O)C6=O)CC4)cn3)nc2n(C2CCCC2)c1=O [BSJ-03-123]; assay: as above
[2] = compound: CC(=O)c1c(C)c2cnc(Nc3ccc(N4CCNCC4)cn3)nc2n(C2CCCC2)c1=O; assay: as above
[3] = compound: CCN1CCN(Cc2ccc(Nc3ncc(F)c(-c4cc(F)c5nc(C)n(C(C)C)c5c4)n3)nc2)CC1; assay: as above
Flavopiridol = compound: CN1CC[C@H](c2c(O)cc(O)c3c(=O)cc(-c4ccccc4Cl)oc23)[C@H](O)C1 [Flavopiridol]; assay: as above
THZ1 = compound: CN(C)C/C=C/C(=O)Nc1ccc(C(=O)Nc2cccc(Nc3ncc(Cl)c(-c4c[nH]c5ccccc45)n3)c2)cc1 [THZ1]; assay: as above
Neratinib/HKI272 = compound: CCOc1cc2ncc(C#N)c(Nc3ccc(OCc4ccccn4)c(Cl)c3)c2cc1NC(=O)/C=C/CN(C)C [Neratinib/HKI272]; assay: as above
AZD2014 = compound: CNC(=O)c1cccc(-c2ccc3c(N4CCOC[C@@H]4C)nc(N4CCOC[C@@H]4C)nc3n2)c1 [AZD2014]
BSJ-01-175 = compound: CN(C)C/C=C/C(=O)Nc1ccc(O[C@@H]2CCC[C@@H](Nc3ncc(Cl)c(-c4c[nH]c5ccccc45)n3)C2)cc1 [BSJ-01-175]
Tivantinib/ARQ197 = compound: O=C1NC(=O)[C@@H](c2cn3c4c(cccc24)CCC3)[C@@H]1c1c[nH]c2ccccc12 [Tivantinib/ARQ197]
AZD7762 = compound: NC(=O)Nc1cc(-c2cccc(F)c2)sc1C(=O)N[C@H]1CCCNC1 [AZD7762]
[4] = compound: CCC1=CN=CN=C1N2CCN(CC2)CC3=NC4=C(N3)C=C(C=C4)C(F)(F)F
Vorinostat = compound: O=C(CCCCCCC(=O)Nc1ccccc1)NO [Vorinostat]
[5] = compound: CCN1CCN(Cc2ccc(Nc3ncc(F)c(-c4cc(F)c5nc(C)n(C(C)C)c5c4)n3)nc2)CC1
Ipatasertib/GDC0068 = compound: CC(C)NC[C@@H](C(=O)N1CCN(c2ncnc3c2[C@H](C)C[C@H]3O)CC1)c1ccc(Cl)cc1 [Ipatasertib/GDC0068]
[6] = compound: CC(=O)Nc1cccc(-n2c(=O)n(C3CC3)c(=O)c3c(Nc4ccc(I)cc4F)n(C)c(=O)c(C)c32)c1
[7] = compound: COc1ccc2c(c1)[C@]1(C[C@H]1c1ccc3c(/C=C/c4ccc(CN5C[C@@H](C)O[C@@H](C)C5)cc4)n[nH]c3c1)C(=O)N2
AZD6738 = compound: C[C@@H]1COCCN1c1cc(C2([S@](C)(=N)=O)CC2)nc(-c2cc[nH]c3nccc2-3)n1 [AZD6738]
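For GR50, 72 h in this document: breast cancer and non-malignant breast epithelial cell lines, Deep Dye Drop or Dye Drop imaging, nine half-log doses, GR normalized to time-zero plates and DMSO-only controls.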

With HCC1419 the “increase in dead-cell fraction” value ([1]; 0.0001 µM) was -0.001, the “increase in dead-cell fraction” value ([1]; 0.0003162 µM) was -0.0047 and the “increase in dead-cell fraction” value ([1]; 0.001 µM) was -0.0035. The “increase in dead-cell fraction” value ([1]; 0.003162 µM) was -0.0074, the “increase in dead-cell fraction” value ([1]; 0.01 µM) was -0.001 and the “increase in dead-cell fraction” value ([1]; 0.03162 µM) was 0.0673. For the same cell line, the “increase in dead-cell fraction” value ([1]; 0.1 µM) was 0.324, the “increase in dead-cell fraction” value ([1]; 0.3162 µM) was 0.371 and the “increase in dead-cell fraction” value ([1]; 1 µM) was 0.369. For the same cell line, the “increase in dead-cell fraction” value (LEE011/Ribociclib; 0.001 µM) was -0.0016, the “increase in dead-cell fraction” value (LEE011/Ribociclib; 0.003162 µM) was 0.0044 and the “increase in dead-cell fraction” value (LEE011/Ribociclib; 0.01 µM) was 0.0015. The “increase in dead-cell fraction” value (LEE011/Ribociclib; 0.03162 µM) was -0.0001, the “increase in dead-cell fraction” value (LEE011/Ribociclib; 0.1 µM) was 0.0168 and the “increase in dead-cell fraction” value (LEE011/Ribociclib; 0.3162 µM) was 0.0148. The “increase in dead-cell fraction” value (LEE011/Ribociclib; 1 µM) was 0.0084, the “increase in dead-cell fraction” value (LEE011/Ribociclib; 3.162 µM) was 0.0128 and the “increase in dead-cell fraction” value (LEE011/Ribociclib; 10 µM) was 0.0195. The “increase in dead-cell fraction” value (BSJ-03-123; 0.001 µM) was 0.0036, the “increase in dead-cell fraction” value (BSJ-03-123; 0.003162 µM) was 0.0018 and the “increase in dead-cell fraction” value (BSJ-03-123; 0.01 µM) was 0.0094. The “increase in dead-cell fraction” value (BSJ-03-123; 0.03162 µM) was 0.0064, the “increase in dead-cell fraction” value (BSJ-03-123; 0.1 µM) was 0.0141 and the “increase in dead-cell fraction” value (BSJ-03-123; 0.3162 µM) was 0.0138. The “increase in dead-cell fraction” value (BSJ-03-123; 1 µM) was 0.0115, the “increase in dead-cell fraction” value (BSJ-03-123; 3.162 µM) was 0.0247 and the “increase in dead-cell fraction” value (BSJ-03-123; 10 µM) was 0.031. For the same cell line, the “increase in dead-cell fraction” value ([2]; 0.0003162 µM) was 0.0008, the “increase in dead-cell fraction” value ([2]; 0.001 µM) was -0.0028 and the “increase in dead-cell fraction” value ([2]; 0.003162 µM) was -0.0032. The “increase in dead-cell fraction” value ([2]; 0.01 µM) was -0.0075, the “increase in dead-cell fraction” value ([2]; 0.03162 µM) was -0.0019 and the “increase in dead-cell fraction” value ([2]; 0.1 µM) was -0.0096. The “increase in dead-cell fraction” value ([2]; 0.3162 µM) was -0.0094, the “increase in dead-cell fraction” value ([2]; 1 µM) was -0.0106 and the “increase in dead-cell fraction” value ([2]; 3.162 µM) was -0.0074. For the same cell line, the “increase in dead-cell fraction” value ([3]; 0.001 µM) was -0.0053, the “increase in dead-cell fraction” value ([3]; 0.003162 µM) was -0.0087 and the “increase in dead-cell fraction” value ([3]; 0.01 µM) was -0.0058. The “increase in dead-cell fraction” value ([3]; 0.03162 µM) was -0.0119, the “increase in dead-cell fraction” value ([3]; 0.1 µM) was -0.0149 and the “increase in dead-cell fraction” value ([3]; 0.3162 µM) was -0.0181. For the same cell line, the “increase in dead-cell fraction” value ([3]; 1 µM) was -0.006, the “increase in dead-cell fraction” value ([3]; 3.162 µM) was -0.0031 and the “increase in dead-cell fraction” value ([3]; 10 µM) was 0.0471. The “increase in dead-cell fraction” value (Flavopiridol; 0.0001 µM) was -0.0053, the “increase in dead-cell fraction” value (Flavopiridol; 0.0003162 µM) was -0.0069 and the “increase in dead-cell fraction” value (Flavopiridol; 0.001 µM) was -0.006. For the same cell line, the “increase in dead-cell fraction” value (Flavopiridol; 0.003162 µM) was -0.0084, the “increase in dead-cell fraction” value (Flavopiridol; 0.01 µM) was -0.0002 and the “increase in dead-cell fraction” value (Flavopiridol; 0.03162 µM) was 0.0077. For the same cell line, the “increase in dead-cell fraction” value (Flavopiridol; 0.1 µM) was 0.0061, the “increase in dead-cell fraction” value (Flavopiridol; 0.3162 µM) was 0.0159 and the “increase in dead-cell fraction” value (Flavopiridol; 1 µM) was 0.162. For the same cell line, the “increase in dead-cell fraction” value (THZ1; 0.0001 µM) was -0.0023, the “increase in dead-cell fraction” value (THZ1; 0.0003162 µM) was 0.0069 and the “increase in dead-cell fraction” value (THZ1; 0.001 µM) was 0.0008. The “increase in dead-cell fraction” value (THZ1; 0.003162 µM) was 0.001, the “increase in dead-cell fraction” value (THZ1; 0.01 µM) was -0.0006 and the “increase in dead-cell fraction” value (THZ1; 0.03162 µM) was -0.0062. For the same cell line, the “increase in dead-cell fraction” value (THZ1; 0.1 µM) was 0.0395, the “increase in dead-cell fraction” value (THZ1; 0.3162 µM) was 0.147 and the “increase in dead-cell fraction” value (THZ1; 1 µM) was 0.138. The “increase in dead-cell fraction” value (Neratinib/HKI272; 0.0003162 µM) was -0.0014, the “increase in dead-cell fraction” value (Neratinib/HKI272; 0.001 µM) was 0.0002 and the “increase in dead-cell fraction” value (Neratinib/HKI272; 0.003162 µM) was 0.0137. The “increase in dead-cell fraction” value (Neratinib/HKI272; 0.01 µM) was 0.0803, the “increase in dead-cell fraction” value (Neratinib/HKI272; 0.03162 µM) was 0.168 and the “increase in dead-cell fraction” value (Neratinib/HKI272; 0.1 µM) was 0.238. The “increase in dead-cell fraction” value (Neratinib/HKI272; 0.3162 µM) was 0.274, the “increase in dead-cell fraction” value (Neratinib/HKI272; 1 µM) was 0.366 and the “increase in dead-cell fraction” value (Neratinib/HKI272; 3.162 µM) was 0.493. For the same cell line, the “GR50, 72 h” value (AZD2014) was under 0.001 µM, the “GR50, 72 h” value (BSJ-01-175) was 0.541 µM and the “GR50, 72 h” value (Tivantinib/ARQ197) was 0.473 µM. For the same cell line, the “GR50, 72 h” value (AZD7762) was 0.0686 µM, the “GR50, 72 h” value [4] was 5.28 µM and the “GR50, 72 h” value (Vorinostat) was 1.8 µM. For the same cell line, the “GR50, 72 h” value [5] was 0.0969 µM, the “GR50, 72 h” value (Ipatasertib/GDC0068) was over 10 µM and the “GR50, 72 h” value [6] was 0.0308 µM. For the same cell line, the “GR50, 72 h” value [7] was 0.00375 µM and the “GR50, 72 h” value (AZD6738) was 8.9 µM.
